Patent US10016414B2, “Modulation of ubiquitination of synaptic proteins for the treatment of neurodegenerative and psychiatric disorders” (UNIVERSITY OF MASSACHUSETTS, priority 2010, dated 2018)
Where “and” joins values, the source holds several entries; their conditions need not be identical. Equal values may be shown once. Peptide text beside a SMILES is read from it. * marks the point of attachment. Cbz = O=C(OCc1ccccc1)*

What was measured:
[1] = system: surface GluA1 (AMPAR) in hippocampal neurons; assay: Aβ-induced AMPAR endocytosis: surface GluA1 in cultured hippocampal neurons; type: cell-based, rat; details: for GluA1 surface expression (GluA1 puncta normalized to SV2 puncta and to naïve cultures): 2 hrs, naïve 100%±4%, n=3
Procedure: A. Micrograph showing GluA2 surface expression upon Aβ treatment in the presence or absence of Nutlin-3. Rat hippocampal neurons were cultured, and treated with Aβ or Aβ together with either Nutlin-3 (5 μM) or HLI373 (15 μM) for 2 hours. The final concentration of Aβ was 0.3 ng/mL. Naïve and Nutlin-3 and HLI373 treatments, without Aβ treatment, were used as controls. Surface expression of AMPARs was measured by labeling the cultured neurons in vivo with an antibody to the AMPAR subunit GluA1, followed by confocal microscopy and immunofluorescence quantification by MetaMorph. The number of GluA1 puncta was normalized to SV2 puncta (a presynaptic marker) and to the value in control naïve cultures. […] Scale bar=5 μm. B. Bar graph showing quantification of the percentage of surface GluA1 in response to the various treatment described in A. Results are presented as mean±SEM.
Soluble amyloid beta (Aβ) peptides contribute directly to synapse loss and decreased dendritic spine density and glutamate receptors at the synapse. Moreover, Aβ has been reported to induce AMPAR internalization in cultured neurons. To evaluate the effect of Mdm2 inhibitors on this process, cultured rat hippocampal neurons were treated for 2 hrs with Aβ (or Aβ together with either Nutlin-3 (5 μM) or HLI-373 (15 μM). Aβ can be prepared from 7PA2 Chinese hamster ovary (CHO) cells stably expressing human amyloid precursor protein (APP)751 containing the V717 mutation (Walsh et al., 2005; Shankar et al., 2007; Shankar et al., 2011), and is also available commercially from, e.g., rPeptide (Bogart, G A). The concentration of Aβ in the hippocampal cultures was 0.3 ng/mL. Naïve and Nutlin-3 and HLI-373 treatments were used as controls. Surface expression of AMPARs was measured by labeling the cultured neurons in vivo with an antibody to the AMPAR subunit GluA1, followed by confocal microscopy and immunofluorescence quantification by MetaMorph. The number of GluA1 puncta was normalized to SV2 puncta (a presynaptic marker) and to the value in control naïve cultures (see FIGS. 8A and B).
Minimum inhibitor concentrations of Nutlin-3a or HLI-373, as well as any other Mdm2 inhibitor identified using the screens described supra, can be readily determined by using different ranges of inhibitor concentrations and assessing the effects of the particular concentrations on surface expression of AMPARs. Similar results are expected with other inhibitors of PSD-95 ubiquitination by Mdm2, such as PSD-95 inhibitors.

PSD-95 degradation = details: Colledge et al., 2003; cited from earlier work
3×Tg-AD mice = details: Martinez-Coria-LaFeria, 2010; cited from earlier work
PSD-95 ubiquitination = PSD-95 ubiquitination in acute forebrain slices (PSD-95 immunoprecipitation, ubiquitin/FK1/FK2 immunoblot); type: cell-based, mouse; details: wild-type slices; NMDA 100 μM, 3 min; 10 min after washout
[2] = system: interaction of β-adaptin with PSD-95; assay: NMDA-dependent interaction of PSD-95 with β-adaptin in acute forebrain slices (co-immunoprecipitation); type: cell-based, mouse; details: NMDA 100 μM, 3 min; for interaction of β-adaptin with PSD-95 (percentage of p53 knockout unstimulated control): n=3
Procedure: A. Immunoblot showing that NMDA receptors regulate the interaction of PSD-95 with β-adaptin. Acute forebrain slices from wild-type mice were stimulated with NMDA (100 μM, 3 min) and, after NMDA washout, incubated for additional 5 or 10 min.
B. Immunoblot showing that genetic deletion of Mdm2 reduces the NMDA-dependent interaction of PSD-95 with β-adaptin. Acute forebrain slices from p53 knockout (control) and Mdm2/p53 double knockout mice were stimulated with NMDA (100 μM, 3 min) and, after NMDA washout, incubated for an additional 5 or 10 min.
Acute forebrain slices were prepared as previously described (Patel et al., 2003; Zhang et al., 2008). Briefly, brains of adult wild-type, p53 knockout or Mdm2/p53 double knockout mice were isolated, and 300 μm coronal slices of forebrain (within the region corresponding approximately to Bregma −1.0 to −3.5 mm, containing the hippocampus) were prepared using a Vibratome (Leica Microsystems VT1000S) in ice-cold oxygenated artificial cerebrospinal fluid (ACSF: 117 mM NaCl, 1.7 mM KCl, 1.2 mM MgCl2, 2.5 mM CaCl2, 1.2 mM NaH2PO4, 25 mM NaHCO3, 11.5 mM glucose). Slices were preincubated in ACSF for 1 h before treatments and all experiments were conducted at 32° C. in 95% O2 and 5% CO2 incubator. NMDA treatment was conducted by incubating slices with 100 μM NMDA for 3 min in ACSFcLTD (124 mM NaCl, 5 mM KCl, 1.5 mM MgCl2, 2.5 mM CaCl2, 1.25 mM NaH2PO4, 26 mM NaHCO3, 10 mM glucose) (Lee et al., 1998). After agonist washout, the slices were further incubated in ACSF-cLTD for the time indicated (5-10 min). Slice lysates were prepared as previously described (Zhang et al., 2008) and PSD-95 immunoprecipitated from the lysates was analyzed by Western blot and quantified as described above. Values were expressed as mean±S.E.M. and statistically compared using analysis of variance (ANOVA).
PSD-95 is important for NMDAR-induced endocytosis of synaptic AMPARs (Colledge et al., 2003; Bhattacharyya et al., 2009) and a brief application of NMDA induces both a rapid and transient increase in PSD-95 ubiquitination, which peaks approximately 10 min after the onset of NMDA treatment (Colledge et al., 2003). […] Following a brief (3 min) stimulation with 100 μM NMDA, a treatment that induces AMPAR endocytosis (Bhattacharyya et al., 2009), acute forebrain slices from adult wildtype mice were analyzed at 5 min and 10 min after agonist washout. PSD-95 immunoprecipitated from slice lysates was analyzed for coimmunoprecipitation of β-adaptin and ubiquitination (FIG. 5A).
To further investigate whether ubiquitination of PSD-95 promotes the interaction of PSD-95 with β-adaptin, this interaction was investigated in acute brain slices derived from mice with a genetic deletion of the ubiquitin ligase Mdm2. Acute forebrain slices from adult Mdm2/p53 double knockout mice and control p53 knockout mice were analyzed at 5 min and 10 min after NMDA (100 μM, 3 min) washout. The interaction of PSD-95 with β-adaptin was assessed by immunoblot of PSD-95 immunoprecipitated from slice lysates (FIG. 5B).

[3] = system: surface GluA2 (AMPAR) in hippocampal neurons; assay: NMDA-induced AMPAR endocytosis: surface GluA2 by antibody feeding in hippocampal cultures; type: cell-based, rat; details: NMDA 100 μM for 3 min
Procedure: A. Micrograph showing GluA2 surface expression upon NMDA treatment in the presence or absence of Nutlin-3. Cultured hippocampal neurons were subjected to an antibody feeding protocol using an antibody that recognizes an extracellular domain of GluA2. The neurons were subsequently pretreated with Nutlin-3 (5 μM for 30 min) prior to NMDA treatment (100 μM for 3 min), followed by agonist washout. Neurons were incubated for an additional 15 min (with or without Nutlin-3) before immunocytochemical analysis of PSD-95 and surface GluA2 by confocal microscopy.
B. A bar graph depicting the proportion of GluA2 found at the surface of cultured hippocampal neurons upon treatment with or without NMDA, in the presence or absence of Nutlin-3. Results are presented as mean±SEM.
Brief stimulation of NMDARs induces AMPAR endocytosis in cultured neurons (Colledge et al., 2003; Bhattacharyya et al., 2009). To determine whether Nutlin-3a antagonizes NMDA-induced AMPAR endocytosis, measured as loss of surface AMPAR staining, the surface expression of GluA2 (a subunit of AMPARs in rat hippocampal cultures) was assessed. Surface GluA2 were labeled in vivo by an antibody feeding protocol using an antibody that recognizes an extracellular domain of GluA2 (Ehlers, 2000; Lin et al., 2000; Bhattacharyya et al., 2009). Neurons were pretreated with Nutlin-3a (5 μM for 30 min) prior to NMDA treatment. After brief stimulation with NMDA (100 μM for 3 min) and agonist washout, neurons were incubated for an additional 15 min (with or without Nutlin-3a) before immunocytochemical analysis of PSD-95 and surface GluA2 by confocal microscopy under the same settings. Immunostained puncta were quantified using MetaMorph software (3 neurons from 2 coverslips with approximately 450 puncta analyzed/condition) and the number of GluA2 puncta was normalized to the number of PSD-95 puncta.
Naïve and NMDA-stimulated conditions were used as controls. […]

With `CN(C)CCCNc1c2c(=O)n(C)c(=O)nc-2n(C)c2ccccc12` [HLI-373] the “effect on loss of surface GluA1 induced by Aβ” value ([1]; Aβ 0.3 ng/mL, 2 hours, Nutlin-3 5 μM, HLI373 15 μM) was “prevented the loss of surface GluA1 induced by Aβ treatment”, the “GluA1 surface expression (GluA1 puncta normalized to SV2 puncta and to naïve cultures)” value ([1]; co-treatment with Aβ 0.3 ng/mL, Nutlin 5 μM, HLI373 15 μM) was 132.18%±11.33% and the “GluA1 surface expression (GluA1 puncta normalized to SV2 puncta and to naïve cultures)” value ([1]; inhibitor alone, without Aβ, Nutlin-3 5 μM, HLI-373 15 μM) was 170.95%±5.37%.
In the case of `CC(C)C[C@@H](C=O)NC(=O)[C@H](CC(C)C)NC(=O)[C@H](CC(C)C)NC(=O)OCc1ccccc1` [MG132] (Cbz-Leu-Leu-Leu-aldehyde), the “effect on PSD-95 degradation” value (PSD-95 degradation) is listed as “protect PSD-95 from degradation”.
In the case of `CC12CC3CC(C)(C1)CC(N)(C3)C2` [Memantine, 1-amino-3,5-dimethyl-adamantane], the “AD-like neuropathology in 3×Tg-AD mice” value (3×Tg-AD mice) is listed as “reduce AD-like neuropathology” and the “cognition in 3×Tg-AD mice” value (3×Tg-AD mice) is listed as “improve cognition”.
With `CN[C@H](CC(=O)O)C(=O)O` [NMDA, N-Methyl-D-aspartic acid] the “PSD-95 ubiquitination (FK2 immunoblot) versus unstimulated control” value (PSD-95 ubiquitination) was “increased ubiquitination at 10 min after NMDA washout”, the “interaction of β-adaptin with PSD-95 (percentage of p53 knockout unstimulated control)” value ([2]; Mdm2/p53 double knockout slices, 5 min after washout) was 45.6%±1.8% and the “interaction of β-adaptin with PSD-95 (percentage of p53 knockout unstimulated control)” value ([2]; Mdm2/p53 double knockout slices, 10 min after washout) was 99.8%±43.7%. For the same compound, the “interaction of β-adaptin with PSD-95 (percentage of p53 knockout unstimulated control)” value ([2]; p53 knockout slices, 5 min after washout, control 100%±14.9%) was 209.0%±72.6%, the “interaction of β-adaptin with PSD-95 (percentage of p53 knockout unstimulated control)” value ([2]; p53 knockout slices, 10 min after washout) was 549.8%±168% and 549.8%±167.7% and the “coimmunoprecipitation of β-adaptin with PSD-95 versus unstimulated control” value ([2]; wild-type slices, 10 min after washout) was “coimmunoprecipitation of β-adaptin with PSD-95 10 min after NMDA washout”. For the same compound, the “PSD-95 puncta following NMDA stimulation of naïve cultures” value [3] was “did not decrease” and the “GluA2 surface expression (GluA2 puncta normalized to PSD-95 puncta, versus naïve control)” value ([3]; then 15 min, no inhibitor, naïve 100%±9.47%, n=3) was 41.95±9.63%.
